Measured values as given in ChEMBL document CHEMBL2010789, “Identification of 3-acyl-2-phenylamino-1,4-dihydroquinolin-4-one derivatives as inhibitors of the phosphatase SerB653 in Porphyromonas gingivalis, implicated in periodontitis” (Bioorg Med Chem Lett, 2012).
Converted amounts (≈) assume the structure as drawn. The source made the active and inactive calls. The rule behind the calls is not given here.

Legend:
[1] = tested on: Porphyromonas gingivalis; experiment: Inhibition of Porphyromonas gingivalis recombinant SerB653 phosphatase expressed in Escherichia coli BL21 using phosphoserine as substrate at 50 uM after 1 hr by malachite green colorimetric assay
[2] = Inhibition of Porphyromonas gingivalis recombinant SerB653 phosphatase expressed in Escherichia coli BL21 using phosphoserine as substrate after 1 hr by malachite green colorimetric assay
[3] = tested on: Porphyromonas gingivalis; experiment: Antibacterial activity against Porphyromonas gingivalis ATCC 33277 after 2 hrs by broth microdilution method; format: functional; conditions: ATCC 33277, 2 h
[4] = Inhibition of Porphyromonas gingivalis recombinant SerB653 phosphatase expressed in Escherichia coli BL21 using phosphoserine as substrate measured every 10 secs by malachite green colorimetric assay
[5] = tested on: Porphyromonas gingivalis; experiment: Competitive inhibition of Porphyromonas gingivalis recombinant SerB653 phosphatase expressed in Escherichia coli BL21 using phosphoserine as substrate by Lineweaver-Burk plot analysis

| Structure (SMILES) | inhibition [1] [%] | IC50 [2] [µM] | MIC [3] [µg/mL] | inhibition [5] | Ki [4] [µM] |
| --- | --- | --- | --- | --- | --- |
| CCC(=O)c1c(Nc2cc(Cl)ccc2Cl)[nH]c2c(Cl)ccc([N+](=O)[O-])c2c1=O | 97.8 | 4 | 0.05 (≈ 0.113 µM) | – | 1.4 |
| O=C(c1c(Nc2ccc(Cl)cc2F)[nH]c2c(Cl)ccc([N+](=O)[O-])c2c1=O)C1CC1 | 95.5 | 18.7 | – | – | – |
| CC(=O)c1c(Nc2ccc(C(F)(F)F)cc2)[nH]c2c(C(F)(F)F)cc(Cl)cc2c1=O | 97.7 | 7 | – | – | 2.5 |
| CC(C)C(=O)c1c(Nc2ccc(F)cc2F)[nH]c2c(Cl)ccc([N+](=O)[O-])c2c1=O | 80.1 | 12.3 | – | – | – |
| CC(C)CC(=O)c1c(Nc2cc(Cl)cc(Cl)c2)[nH]c2c(Cl)ccc([N+](=O)[O-])c2c1=O | 99.1 | 18.7 | – | – | – |
| O=C(c1c(Nc2ccc(Cl)c(Cl)c2)[nH]c2c(Cl)ccc(Cl)c2c1=O)C1CC1 | 89.7 | 11.5 | – | – | 4.1 |
| CC(=O)c1c(Nc2ccc(F)c(F)c2F)[nH]c2c(Cl)ccc(C)c2c1=O | 32.4 | – | – | – | – |
| CC(C)C(=O)c1c(Nc2cc(Cl)cc(Cl)c2)[nH]c2c(Cl)ccc(Cl)c2c1=O | 94.9 | 9.2 | – | – | 3.3 |
| CC(C)CC(=O)c1c(Nc2ccc(Cl)cc2F)[nH]c2c(Cl)ccc([N+](=O)[O-])c2c1=O | 97.3 | 19.3 | – | – | – |
| CC(=O)c1c(Nc2cccc(F)c2C)[nH]c2c(F)ccc(F)c2c1=O | 0 | – | – | – | – |
| CCC(=O)c1c(Nc2cccc(Cl)c2Cl)[nH]c2c(Cl)ccc([N+](=O)[O-])c2c1=O | 97.1 | 5.5 | 0.05 (≈ 0.113 µM) | – | 2 |
| CC(C)C(=O)c1c(Nc2cc(Cl)cc(Cl)c2)[nH]c2c(Cl)ccc([N+](=O)[O-])c2c1=O | 99.1 | 17.9 | – | – | – |
| CC(=O)c1c(Nc2cccc(C)c2)[nH]c2c(Cl)c(Cl)ccc2c1=O | 1.6 | – | – | – | – |
| CC(=O)c1c(Nc2ccc(C)cc2)[nH]c2c([N+](=O)[O-])cc(Cl)cc2c1=O | 2.2 | – | – | – | – |
| O=C(c1c(Nc2ccc(F)cc2F)[nH]c2c(Cl)ccc([N+](=O)[O-])c2c1=O)C1CC1 | 85.6 | 11.3 | – | – | 4 |
| CC(C)C(=O)c1c(Nc2ccc(Cl)cc2F)[nH]c2c(Cl)ccc([N+](=O)[O-])c2c1=O | 94.3 | 16.5 | – | – | – |
| CC(C)CC(=O)c1c(Nc2cccc(Cl)c2Cl)[nH]c2c(Cl)ccc([N+](=O)[O-])c2c1=O | 98.6 | 18.9 | – | – | – |
| COc1cccc(Nc2[nH]c3c(Cl)c(Cl)ccc3c(=O)c2C(C)=O)c1 | 3.6 | – | – | – | – |
| COc1cccc(Nc2[nH]c3c([N+](=O)[O-])cc(Cl)cc3c(=O)c2C(C)=O)c1 | 0 | – | – | – | – |
| CC(=O)c1c(Nc2cc(F)cc(F)c2)[nH]c2c([N+](=O)[O-])cc(Cl)cc2c1=O | 92.2 | 17.6 | – | – | – |
| O=C(c1c(Nc2cc(F)cc(F)c2)[nH]c2c(Cl)ccc([N+](=O)[O-])c2c1=O)C1CC1 | 96.2 | 2.8 | 0.006 (≈ 0.0143 µM) | Active | 1 |
| CC(C)CC(=O)c1c(Nc2cc(F)cc(F)c2)[nH]c2c(Cl)ccc([N+](=O)[O-])c2c1=O | 97.5 | 16.3 | – | – | – |

| Structure (SMILES) | inhibition [1] [%] | IC50 [2] [µM] | MIC [3] [µg/mL] | inhibition [5] | Ki [4] [µM] |
| --- | --- | --- | --- | --- | --- |
| CCC(=O)c1c(Nc2cc(F)cc(F)c2)[nH]c2c(Cl)ccc([N+](=O)[O-])c2c1=O | 92.7 | 19.4 | – | – | – |
| CC(=O)c1c(Nc2ccc(F)cc2)[nH]c2c([N+](=O)[O-])cc(Cl)cc2c1=O | 9.3 | – | – | – | – |
| O=C(c1c(Nc2cc(Cl)ccc2Cl)[nH]c2c(Cl)ccc([N+](=O)[O-])c2c1=O)C1CC1 | 98.2 | 18.7 | – | – | – |
| O=C(c1c(Nc2cc(Cl)cc(Cl)c2)[nH]c2c(Cl)ccc([N+](=O)[O-])c2c1=O)C1CC1 | 99.4 | 17 | – | – | – |
| CC(=O)c1c(Nc2cc(F)cc(F)c2)[nH]c2c(Cl)c(Cl)ccc2c1=O | 93.5 | 18.6 | – | – | – |
| CC(=O)c1c(Nc2cc(F)ccc2F)[nH]c2c(F)ccc(F)c2c1=O | 7.9 | – | – | – | – |
| CC(=O)c1c(Nc2ccccc2Cl)[nH]c2c(C(F)(F)F)cc(Cl)cc2c1=O | 89.1 | 16.8 | – | – | – |
| CC(C)C(=O)c1c(Nc2cc(F)cc(F)c2)[nH]c2c(Cl)ccc([N+](=O)[O-])c2c1=O | 94.7 | 19.1 | – | – | – |
| CCC(=O)c1c(Nc2ccc(Cl)cc2Cl)[nH]c2c(Cl)ccc([N+](=O)[O-])c2c1=O | 97.4 | 19.6 | – | – | – |
| CC(=O)c1c(Nc2cc(Cl)ccc2Cl)[nH]c2c(Cl)ccc([N+](=O)[O-])c2c1=O | 98.3 | 19 | – | – | – |
| CC(C)C(=O)c1c(Nc2cccc(Cl)c2Cl)[nH]c2c(Cl)ccc([N+](=O)[O-])c2c1=O | 96.3 | 19.1 | – | – | – |
| CCC(=O)c1c(Nc2ccc(Cl)cc2F)[nH]c2c(Cl)ccc([N+](=O)[O-])c2c1=O | 94.9 | 19.8 | – | – | – |
| CC(=O)c1c(Nc2ccccc2)[nH]c2c([N+](=O)[O-])cc(Cl)cc2c1=O | 3.1 | – | – | – | – |
| CCC(=O)c1c(Nc2cc(Cl)cc(Cl)c2)[nH]c2c(Cl)ccc([N+](=O)[O-])c2c1=O | 97.4 | 6.9 | – | – | 2.5 |
| CC(=O)c1c(Nc2cc(Cl)ccc2Cl)[nH]c2c(Cl)ccc(Cl)c2c1=O | 86.6 | 16.7 | – | – | – |
| O=C(c1c(Nc2cccc(Cl)c2Cl)[nH]c2c(Cl)ccc([N+](=O)[O-])c2c1=O)C1CC1 | 98.5 | 12.6 | – | – | 4.5 |
| CC(C)C(=O)c1c(Nc2ccc(Cl)cc2Cl)[nH]c2c(Cl)ccc(Cl)c2c1=O | 97.7 | 8 | – | – | 2.9 |
| CC(=O)c1c(Nc2ccc(F)cc2F)[nH]c2c(Cl)ccc(F)c2c1=O | 9.1 | – | – | – | – |
| CC(=O)c1c(Nc2cc(F)cc(F)c2)[nH]c2c(F)ccc(F)c2c1=O | 5.9 | – | – | – | – |
| CC(=O)c1c(Nc2ccc(C(C)(C)C)cc2)[nH]c2c([N+](=O)[O-])cc(Cl)cc2c1=O | 0 | – | – | – | – |
| CC(C)C(=O)c1c(Nc2cc(Cl)ccc2Cl)[nH]c2c(Cl)ccc([N+](=O)[O-])c2c1=O | 97.3 | 19 | – | – | – |

Continued, in another order:

| inhibition [1] [%] | IC50 [2] [µM] | MIC [3] [µg/mL] | inhibition [5] | Structure (SMILES) | Ki [4] [µM] |
| --- | --- | --- | --- | --- | --- |
| 95 | 19.4 | – | – | CC(=O)c1c(Nc2cc(C(F)(F)F)cc(C(F)(F)F)c2)[nH]c2c(F)ccc(F)c2c1=O | – |
| 8.6 | – | – | – | CC(=O)c1c(Nc2cc(Cl)cc(Cl)c2)[nH]c2c(C)ccc(Cl)c2c1=O | – |
| 96.3 | 18.6 | – | – | CC(=O)c1c(Nc2ccc(Cl)cc2Cl)[nH]c2c(C(F)(F)F)cccc2c1=O | – |
| 6.2 | – | – | – | COc1ccc(Nc2[nH]c3c([N+](=O)[O-])cc(Cl)cc3c(=O)c2C(C)=O)cc1 | – |
| 91 | 19.3 | – | – | CC(C)CC(=O)c1c(Nc2cc(F)ccc2F)[nH]c2c(Cl)ccc(Cl)c2c1=O | – |
| 96.7 | 19.6 | – | – | CC(=O)c1c(Nc2cccc(Cl)c2Cl)[nH]c2c(Cl)ccc([N+](=O)[O-])c2c1=O | – |
| 95.7 | 7.5 | – | – | CC(=O)c1c(Nc2ccc(Cl)cc2)[nH]c2c(C(F)(F)F)cc(Cl)cc2c1=O | 2.7 |
| 98.1 | 17.6 | – | – | O=C(c1c(Nc2ccc(Cl)cc2Cl)[nH]c2c(Cl)ccc([N+](=O)[O-])c2c1=O)C1CC1 | – |
| 2.3 | – | – | – | CC(=O)c1c(Nc2ccc(F)cc2F)[nH]c2c(C)ccc(Cl)c2c1=O | – |
| 4.8 | – | – | – | CC(=O)c1c(Nc2ccccc2)[nH]c2c(Cl)c(Cl)ccc2c1=O | – |
| 99.3 | 18.8 | – | – | CC(=O)c1c(Nc2cc(Cl)cc(Cl)c2)[nH]c2c(Cl)ccc([N+](=O)[O-])c2c1=O | – |
| 97.8 | 19.6 | – | – | CC(C)CC(=O)c1c(Nc2ccc(Cl)cc2Cl)[nH]c2c(Cl)ccc([N+](=O)[O-])c2c1=O | – |
| 0 | – | – | – | CC(=O)c1c(Nc2ccc(F)cc2F)[nH]c2c(F)ccc(F)c2c1=O | – |
| 24.5 | – | – | – | CC(=O)c1c(Nc2ccc(Cl)cc2F)[nH]c2c(Cl)ccc(C)c2c1=O | – |
| 98.5 | 11.6 | – | – | CCC(=O)c1c(Nc2ccc(Cl)c(Cl)c2)[nH]c2c(Cl)ccc([N+](=O)[O-])c2c1=O | 4.1 |
| 87 | 14.5 | – | – | CC(=O)c1c(Nc2ccc([N+](=O)[O-])cc2)[nH]c2c([N+](=O)[O-])cc(Cl)cc2c1=O | – |
| 98.8 | 18.8 | – | – | CC(C)CC(=O)c1c(Nc2cc(Cl)ccc2Cl)[nH]c2c(Cl)ccc([N+](=O)[O-])c2c1=O | – |
| 99 | 7 | – | – | CC(=O)c1c(Nc2ccc(Cl)cc2Cl)[nH]c2c(C(F)(F)F)cc(Cl)cc2c1=O | 2.5 |
| 98.5 | 19.3 | – | – | CC(=O)c1c(Nc2cc(C(F)(F)F)cc(C(F)(F)F)c2)[nH]c2c(Cl)ccc(F)c2c1=O | – |
| 1.4 | – | – | – | CC(=O)c1c(Nc2ccc(Br)cc2)[nH]c2c(F)ccc(F)c2c1=O | – |
